The values below are quoted from earlier work in patent US7855206B2, “Tricyclic heteroaromatic compounds as dipeptidyl peptidase-IV inhibitors for the treatment or prevention of diabetes” (Merck Sharp & Dohme Corp., priority 2006, dated 2010).

Each structure is given as a SMILES string.

Data set [1] concerns hematopoiesis in mouse. Particulars: cyclophosphamide-induced neutropenia.
For data set [2], the system named is cardiac allograft in rats. The following applies: doubled from day 7.
Data set [3] relates to GRF degradation in plasma.

For the molecule `CC(C)[C@H](N)C(=O)N1CCC[C@H]1B(O)O` [Val-Boro-Pro], the effect on hematopoiesis entry in data set [1] is recorded as “stimulated hematopoiesis”.
As for `CC(C)N1CCC(c2ccccc2)(c2ccccc2)CC1` [Prodipine, Pro-Pro-diphenyl-phosphonate], in data set [2], the cardiac allograft survival is 14 day.
In the case of `CC[C@H](C)[C@H](N)C(=O)N1CCC[C@H]1C(=O)N[C@H](C(=O)O)[C@@H](C)CC` [diprotin A], in data set [3], the “effect on degradation of GRF to GRF[3-44]” value is on record as “prevented”.
